Like-named read-outs stand apart in the source and are kept apart here.
Key:
[1] = target: E. Coli β-lactamase (Escherichia coli, UniProt P00811); settings: enzyme E. Coli; cited from earlier work
[2] = tested on: P99/Q908R/Citro.F. β-lactamases; settings: enzymes P99/Q908R/Citro.F.; cited from earlier work
[3] = target: P99/Q908R β-lactamases (Enterobacter cloacae, UniProt P05364); settings: cited from earlier work
[4] = target: T1, type C β-lactamases (Enterobacter cloacae, UniProt P05364); settings: Ki of the parent inhibitor; cited from earlier work
T1 construct: Ki

[5] = target: Citro.F. β-lactamase (Citrobacter freundii, UniProt P05193); settings: enzyme Citro.F.; cited from earlier work
[6] = tested on: T2, type C β-lactamases; settings: selected inhibitors, over the β-lactamases; cited from earlier work
T2 construct: rows headed: Km; kcat

[7] = target: β-lactamase from C. Freundii (Citrobacter freundii, UniProt P05193); assay: Inhibitory activity (Ki) on nitrocefin hydrolysis by β-lactamase; format: biochemical
Excerpt: (§1) The choice of the inhibitor depends on the kinetic parameters and on the possibilities of coupling with the hapten to be assayed (presence of functional groups which are not essential for the inhibitory activity). At the enzymatic level, the ideal inhibitor should have a kcat which is as low as possible (very slow rate of degradation) while having a Km which is as low as possible (high affinity for the enzyme) . In the case of the inhibition reactions envisaged, the Km value is close to the constant Ki. The Km can therefore be estimated from an evaluation of the Ki. This is obtained from kinetic measurements carried out in the presence of a reporter substrate with known characteristics, and this in the presence of a variable quantity of inhibitor. The ideal inhibitor should also have a rate constant k+1 (corresponding to the step of binding of the inhibitor to the enzyme) which is as high as possible. Based on this principle, it has been possible to select five inhibitors. They are:
(§2) The measurements were carried out on β-lactamases from different bacterial strains: Enterobacter cloacae P99, Escherichia coli and Citrobacter freundii, symbolized by: P99, E. Coli and C. Freundii.
(§3) The measurements are divided into four parts. […] The second is an evaluation of the inhibitory activity of the inhibitors (Table 9). The third groups together the measurements of enzymatic activity in order to determine the quantity of antibody to be used in the assay. The fourth part comprises the assay of the haptens.
(§4) By way of example, the results of a selective study carried out on this compound are provided. The results presented in Table 9 give the values obtained according to a similar method. […] These measurements determine the concentrations of inhibitor (I) to be used during the assay.

[8] = target: T3, β-lactamase from E. Coli (Escherichia coli, UniProt P00811); assay: as above; format: biochemical
Excerpt: as §1, §2, §3, §4

[9] = target: T4, β-lactamase from Enterobacter cloacae P99 (Enterobacter cloacae, UniProt P05364); assay: as above; format: biochemical
T4 construct: host or cells: Enterobacter cloacae P99 (strain of origin as printed)
Excerpt: as §1, §2, §3, §4

[10] = target: T3, β-lactamase from E. Coli; assay: Inhibitory activity in the presence of anti-nandrolone antibodies; format: biochemical; settings: for V1: without antibodies
Excerpt: (§5) The objective of these measurements, by way of example, is the evaluation of the restoration of the predominant part of the enzymatic activity in the presence of a precise quantity of inhibitor.

[11] = target: T5, β-lactamase from P99 (Enterobacter cloacae, UniProt P05364); assay: as above; format: biochemical; settings: P99, [S] 60, [E] 0.25, [I] 0.2 μM
T5 construct: host or cells: Enterobacter cloacae P99 (strain of origin as printed)
Excerpt: as §5

[12] = tested on: P99/Q908E/E. Coli β-lactamases; settings: enzymes P99/Q908E/E. Coli; cited from earlier work
[13] = C. Freundii [E] 0.375 nM, [S] nitrocefin 60 μM, [I] 0.1 μM
[14] = C. Freundii [E] 0.375 nM, [S] nitrocefin 60 μM, [I] 0.2 μM
[15] = E. Coli [E] 1 nM, [S] nitrocefin 150 μM, [I] 0.2 μM
[16] = E. Coli [E] 1 nM, [S] nitrocefin 150 μM, [I] 0.4 μM
[17] = P99 [E] 0.0625 nM, [S] nitrocefin 50 μM, [I] 0.1 μM
[18] = P99 [E] 0.0625 nM, [S] nitrocefin 50 μM, [I] 0.3 μM
[19] = P99 [E] 0.0625 nM, [S] nitrocefin 50 μM, [I] 0.4 μM
[20] = P99 [E] 0.0625 nM, [S] nitrocefin 50 μM, [I] 0.5 μM
[21] = P99 [E] […], [S] nitrocefin 60 μM, [I] 0.2 μM
[22] = P99 [E] […], [S] nitrocefin 60 μM, [I] 0.24 μM

Citro.F. β-lactamase, sequence (P05193 21-381): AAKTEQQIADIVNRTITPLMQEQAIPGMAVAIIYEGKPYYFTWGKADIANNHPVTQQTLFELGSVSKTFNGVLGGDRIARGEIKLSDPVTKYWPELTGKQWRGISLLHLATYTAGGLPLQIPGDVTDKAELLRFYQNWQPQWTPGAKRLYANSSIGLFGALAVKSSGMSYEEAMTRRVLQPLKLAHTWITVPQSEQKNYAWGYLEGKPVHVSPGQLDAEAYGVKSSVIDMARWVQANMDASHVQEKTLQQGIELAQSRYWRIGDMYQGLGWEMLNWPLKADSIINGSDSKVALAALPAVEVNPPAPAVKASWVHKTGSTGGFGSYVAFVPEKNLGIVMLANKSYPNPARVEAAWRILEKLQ
β-lactamase from C. Freundii, sequence (P05193 21-381): as above
E. Coli β-lactamase, sequence (P00811 20-377): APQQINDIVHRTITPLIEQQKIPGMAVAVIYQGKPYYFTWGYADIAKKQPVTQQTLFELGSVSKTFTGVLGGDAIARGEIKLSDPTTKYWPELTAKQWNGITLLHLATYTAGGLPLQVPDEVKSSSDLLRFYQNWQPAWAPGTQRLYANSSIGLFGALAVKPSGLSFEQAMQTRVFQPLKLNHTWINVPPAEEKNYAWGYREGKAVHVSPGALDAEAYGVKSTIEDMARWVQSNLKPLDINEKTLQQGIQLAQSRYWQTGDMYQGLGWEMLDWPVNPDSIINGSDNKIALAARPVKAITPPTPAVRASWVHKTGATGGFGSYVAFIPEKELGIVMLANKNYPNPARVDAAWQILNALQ
T3 sequence (P00811 20-377): as above

## CC1(C)S[C@@H]2[C@H](NC(=O)Cc3ccccc3)C(=O)N2[C@H]1C(=O)O [Benzylpenicillin]
[1]
  Km: 4.4 µM
  kcat: 45 S^−1
[2]
  Km: 0.5 µM
  kcat: 20 S^−1

## CC1(C)S[C@@H]2[C@H](NC(=O)C(C(=O)O)c3ccccc3)C(=O)N2[C@H]1C(=O)O (stereo partly shown) [Carbenicillin]
[3]; enzyme P99/Q908R
  Km: 0.01 µM
  kcat: 0.002 S^−1
[1]
  Km: 0.02 µM
  kcat: 0.003 S^−1
[4]
  Ki: 10 nM
[5]
  Km: 0.0005 µM
  kcat: 0.004 S^−1

## Cc1nnc(SCC2=C(C(=O)O)N3C(=O)[C@@H](NC(=O)Cn4cnnn4)[C@H]3SC2)s1 [Cefazolin]
[1]
  Km: 400 µM
  kcat: 3000 150 S^−1

## CO/N=C(\C(=O)N[C@@H]1C(=O)N2C(C(=O)O)=C(COC(C)=O)CS[C@H]12)c1csc(N)n1 [Cefotaxime]
[3]; enzyme P99/Q908R
  Km: 0.01 µM
  kcat: 0.01 S^−1
[1]
  Km: 1.7 µM
  kcat: 0.17 S^−1

## CO/N=C(\C(=O)N[C@@H]1C(=O)N2C(C(=O)O)=C(COC(N)=O)CS[C@H]12)c1ccco1 [Cefuroxime]
[3]; enzyme P99/Q908R
  Km: 0.02 µM
  kcat: 0.04 S^−1
[1]
  Km: 0.15 µM
  kcat: 0.15 S^−1
[6]
  Km: 0.02 µM

## CC(=O)OCC1=C(C(=O)O)N2C(=O)[C@@H](NC(=O)CC#N)[C@H]2SC1 [Cephaestrile]
[3]; enzyme P99/Q908R
  Km: 140 µM
  kcat: 143 S^−1

## CC(=O)OCC1=C(C(=O)O)N2C(=O)[C@@H](NC(=O)[C@H](N)c3ccccc3)[C@H]2SC1 [Cephaglycine]
[3]; enzyme P99/Q908R
  kcat: 1 S^−1
[3]; enzyme P99/Q908R, read-out: Km
  Km: 2 µM

## CC1=C(C(=O)O)N2C(=O)[C@@H](NC(=O)[C@H](N)c3ccccc3)[C@H]2SC1 [Cephalexin]
[3]; enzyme P99/Q908R
  kcat: 100 S^−1
[3]; enzyme P99/Q908R, read-out: Km
  Km: 10 µM
[1]
  Km: 4 µM
  kcat: 38 S^−1

## O=C(Cc1cccs1)N[C@@H]1C(=O)N2C(C(=O)[O-])=C(C[n+]3ccccc3)CS[C@H]12 [Cephaloridine]
[3]; enzyme P99/Q908R
  Km: 70 µM
  kcat: 650 S^−1
[1]
  Km: 170 µM
  kcat: 130 S^−1
[5]
  Km: 35 µM
  kcat: 700 S^−1

## CC(=O)OCC1=C(C(=O)O)N2C(=O)[C@@H](NC(=O)CCC[C@@H](N)C(=O)O)[C@H]2SC1 [Cephalosporin C]
[3]; enzyme P99/Q908R
  kcat: 1100 S^−1
[3]; enzyme P99/Q908R, read-out: Km
  Km: 400 µM

## CC(=O)OCC1=C(C(=O)O)N2C(=O)[C@@H](NC(=O)Cc3cccs3)[C@H]2SC1 [Cephalothin]
[3]; enzyme P99/Q908R
  Km: 15 µM
  kcat: 200 S^−1
[1]
  Km: 42 µM
  kcat: 300 S^−1

## CC1(C)S[C@@H]2[C@H](NC(=O)C(C(=O)O[C@H]3CC[C@H]4[C@@H]5CCC6=CC(=O)CC[C@@H]6[C@H]5CC[C@]34C)c3ccccc3)C(=O)N2[C@H]1C(=O)O (stereo partly shown) [Conjugate 1, nandrolone carbenicillinate]
[7]; [13]
  V0/V1 1: 0.15
  V1: 209 nM/s
  Ki: 80 nM
[7]; [14]
  V0/V1 1: 0.47
  V1: 163 nM/s
  Ki: 62 nM
[7]; C. Freundii, summary value of the two determinations
  Ki: 71 nM
[8]; [15]
  V0/V1 1: 0.19
  V1: 260 nM/s
  Ki: 800 nM
[8]; [16]
  V0/V1 1: 0.41
  V1: 220 nM/s
  Ki: 760 nM
[8]; E. Coli, summary value of the two determinations
  Ki: 780 nM
[9]; P99, summary value of the six determinations
  Ki: 74 nM
[9]; [17]
  Ki: 76 nM
  V0/V1 1: 0.44
  V1: 36 nM/s
[9]; [18]
  Ki: 62 nM
  V0/V1 1: 1.6
  V1: 20 nM/s
[9]; [19]
  Ki: 65 nM
  V0/V1 1: 2.06
  V1: 17 nM/s
[9]; [20]
  Ki: 74 nM
  V0/V1 1: 2.25
  V1: 16 nM/s
[9]; [21]
  Ki: 88 nM
  V0/V1 1: 0.66
  V1: 131 nM/s
[9]; [22]
  Ki: 78 nM
  V0/V1 1: 0.88
  V1: 116 nM/s
[9]; enzyme from P99
  Ki: 70 nM
[10]; [S] 150, [E] 1, [I] 0.24 μM, anti-nandrolone serum dil. 625 x
  Vab: 307 nM/s
[10]; [S] 150, [E] 1, [I] 0.24 μM, anti-nandrolone serum dil. 714 x
  Vab: 299 nM/s
[10]; [S] 150, [E] 1, [I] 0.24 μM
  V1: 210 nM/S
[10]; [S] 150, [E] 1, [I] 1 μM, anti-nandrolone serum dil. 100 x
  Vab: 211 nM/s
[10]; [S] 150, [E] 1, [I] 1 μM, anti-nandrolone serum dil. 125 x
  Vab: 210 nM/s
[10]; [S] 150, [E] 1, [I] 1 μM, anti-nandrolone serum dil. 140 x
  Vab: 200 nM/s
[10]; [S] 150, [E] 1, [I] 1 μM, anti-nandrolone serum dil. 200 x
  Vab: 174 nM/s
[10]; [S] 150, [E] 1, [I] 1 μM, anti-nandrolone serum dil. 500 x
  Vab: 123 nM/s
[10]; [S] 150, [E] 1, [I] 1 μM
  V1: 90 nM/S
[11]; anti-nandrolone serum dil. 500 x
  Vab: 200 nM/s
[11]; anti-nandrolone serum dil. 625 x
  Vab: 200 nM/s
[11]; anti-nandrolone serum dil. 770 x
  Vab: 189 nM/s
[11]; anti-nandrolone serum dil. 1000 x
  Vab: 170 nM/s
[11]; without antibodies
  V1: 131 nM/S

## COc1cccc(OC)c1C(=O)N[C@@H]1C(=O)N2[C@@H]1SC(C)(C)[C@@H]2C(=O)O [Methicillin]
[3]; enzyme P99/Q908R
  Km: 0.03 µM
  kcat: 0.007 S^−1
[1]
  Km: 0.15 µM
  kcat: 0.08 S^−1
[5]
  Km: 0.002 µM
  kcat: 0.01 S^−1

## O=C(Cc1cccs1)N[C@@H]1C(=O)N2C(C(=O)O)=C(/C=C/c3ccc([N+](=O)[O-])cc3[N+](=O)[O-])CS[C@H]12 [Nitrocephin]
[3]; P99 enzyme, nitrocefin as reporter substrate
  kcat: 780 s⁻¹
[3]; enzyme P99/Q908R
  kcat: 780 S^−1
[3]; enzyme P99/Q908R, read-out: Km
  Km: 25 µM
[1]
  Km: 500 µM
  kcat: 500 S^−1
[5]
  Km: 12 µM
  kcat: 300 S^−1

## Cc1onc(-c2ccccc2)c1C(=O)N[C@@H]1C(=O)N2[C@@H]1SC(C)(C)[C@@H]2C(=O)O [Oxacillin]
[12]
  Km: 0.0005 µM
  kcat: 0.005 S^−1
[4]
  Ki: 0.5 nM
[6]
  kcat: 0.005 s⁻¹

## CC1(C)S[C@@H]2[C@H](NC(=O)[C@H](C(=O)O)c3ccsc3)C(=O)N2[C@H]1C(=O)O [Ticarcillin]
[12]
  Km: 0.25 µM
  kcat: 0.045 S^−1

Source: patent US6436649B1, “Method for detecting and/or quantifying a hapten in a homogeneous phase and device for implementation thereof” (priority 1996, dated 2002)
